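Method: 48-hour compound exposure of cells in 96-well plates, five concentrations, linear interpolation of endpoints. The concentration for 50% growth inhibition is given as GI50.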 Active and inactive are the calls of the source. Rule as the data show it: active = GI50 up to about 1.1 µM and inactive = higher.
Tests used:
Assay in all cases: NCI-60 cell line screen, 48 h
BT-549 = tested on: BT-549
SW-620 = tested on: SW-620
KM12 = tested on: KM12
TK-10 = tested on: TK-10
PC-3 = tested on: PC-3
NCI-H522 = tested on: NCI-H522
OVCAR-4 = tested on: OVCAR-4
SNB-19 = tested on: SNB-19
MOLT-4 = tested on: MOLT-4
SF-268 = tested on: SF-268
Hs-578T = tested on: Hs-578T
ACHN = tested on: ACHN
OVCAR-3 = tested on: OVCAR-3
SK-OV-3 = tested on: SK-OV-3
HCT-15 = tested on: HCT-15
HCC 2998 = tested on: HCC 2998
SF-539 = tested on: SF-539
COLO 205 = tested on: COLO 205
T47D = tested on: T47D
RXF 393 = tested on: RXF 393

Row | Structure (SMILES) | GI50 (BT-549) | GI50 (SW-620) | GI50 (KM12) | GI50 (TK-10) | GI50 (PC-3) | GI50 (NCI-H522) | GI50 (OVCAR-4) | GI50 (SNB-19) | GI50 (MOLT-4) | GI50 (SF-268) | GI50 (Hs-578T) | GI50 (ACHN) | GI50 (OVCAR-3) | GI50 (SK-OV-3) | GI50 (HCT-15) [µM] | GI50 (HCC 2998) | GI50 (SF-539) | GI50 (COLO 205) | GI50 (T47D) | GI50 (RXF 393)
1 | CN(C(=O)Cc1ccccc1)n1cn[n+](CC(=O)OC(C)(C)C)c1 | > 10 µM (inactive) | > 10 µM (inactive) | > 10 µM (inactive) | > 10 µM (inactive) | > 10 µM (inactive) | > 10 µM (inactive) | > 10 µM (inactive) | > 10 µM (inactive) | > 10 µM (inactive) | > 10 µM (inactive) | > 10 µM (inactive) | > 10 µM (inactive) | > 10 µM (inactive) | > 10 µM (inactive) | > 10 | > 10 µM (inactive) | > 10 µM (inactive) | > 10 µM (inactive) | > 10 µM (inactive) | –
2 | CN1C2CCC1C(C(O)c1ccccc1[N+](=O)[O-])C(=O)C2 (stereo not given) | 43.9 µM (inactive) | 45.2 µM (inactive) | 36.5 µM (inactive) | > 100 µM (inactive) | 45.7 µM (inactive) | 40.3 µM (inactive) | 77.3 µM (inactive) | > 100 µM (inactive) | 47.4 µM (inactive) | 57.1 µM (inactive) | 53.2 µM (inactive) | > 100 µM (inactive) | 34.7 µM (inactive) | > 100 µM (inactive) | 19.5 | > 100 µM (inactive) | 29.8 µM (inactive) | 34.6 µM (inactive) | 26.6 µM (inactive) | –
3 | CCOC(=O)c1sc2c(c1O)c(=O)n(-c1ccccc1)c(=S)n2-c1ccccc1 | 56.6 µM (inactive) | 99.3 µM (inactive) | 46.7 µM (inactive) | > 100 µM (inactive) | – | 46.6 µM (inactive) | > 100 µM (inactive) | > 100 µM (inactive) | – | > 100 µM (inactive) | > 100 µM (inactive) | 81.1 µM (inactive) | 51.1 µM (inactive) | – | 78 | > 100 µM (inactive) | – | > 100 µM (inactive) | > 100 µM (inactive) | > 100 µM (inactive)
4 | Clc1cccc(/C=c2\nc(-c3ccccc3)n3c2nc2ccccc23)c1 | 88.3 µM (inactive) | > 100 µM (inactive) | > 100 µM (inactive) | 87.1 µM (inactive) | > 100 µM (inactive) | – | > 100 µM (inactive) | > 100 µM (inactive) | > 100 µM (inactive) | 40.8 µM (inactive) | 98.6 µM (inactive) | – | > 100 µM (inactive) | 57.5 µM (inactive) | > 100 | – | 34.4 µM (inactive) | > 100 µM (inactive) | – | 31.9 µM (inactive)
5 | CC(C)(C)OC(=O)NCCNC(=O)OCc1ccccc1 | > 100 µM (inactive) | > 100 µM (inactive) | > 100 µM (inactive) | > 100 µM (inactive) | > 100 µM (inactive) | > 100 µM (inactive) | – | > 100 µM (inactive) | > 100 µM (inactive) | > 100 µM (inactive) | > 100 µM (inactive) | > 100 µM (inactive) | > 100 µM (inactive) | > 100 µM (inactive) | > 100 | > 100 µM (inactive) | > 100 µM (inactive) | > 100 µM (inactive) | – | > 100 µM (inactive)
6 | CC(=O)c1[nH]c(Nc2ccc(C)cc2)c(C(=S)Nc2ccccc2)c1N | 15.6 µM (inactive) | 28.4 µM (inactive) | 15.9 µM (inactive) | 17.3 µM (inactive) | – | 15.6 µM (inactive) | 17.5 µM (inactive) | 16.8 µM (inactive) | 30.1 µM (inactive) | 14.5 µM (inactive) | 20 µM (inactive) | 18.8 µM (inactive) | 15.2 µM (inactive) | 34.3 µM (inactive) | 18.3 | 18.6 µM (inactive) | 29.2 µM (inactive) | 23.9 µM (inactive) | 12.8 µM (inactive) | 13.3 µM (inactive)
7 | CCN1CC2=C(OC(N)=C(C#N)C2c2ccc(Cl)cc2)/C(=C/c2ccc(Cl)cc2)C1 (stereo not given) | 70.8 µM (inactive) | 44.1 µM (inactive) | 33.2 µM (inactive) | 21 µM (inactive) | 18.2 µM (inactive) | 25.1 µM (inactive) | 32.4 µM (inactive) | 15 µM (inactive) | 3.19 µM (inactive) | 17.8 µM (inactive) | 22.6 µM (inactive) | 15.7 µM (inactive) | 21.8 µM (inactive) | 18.7 µM (inactive) | 45.8 | 26.7 µM (inactive) | – | 52.4 µM (inactive) | – | 12.3 µM (inactive)
8 | C/C(=N\NC(=S)Nc1ccccc1)c1nc2cccnc2[nH]1 | 5.26 µM (inactive) | 4.97 µM (inactive) | 7.08 µM (inactive) | – | 3.4 µM (inactive) | 2.18 µM (inactive) | 0.927 µM (active) | 5.96 µM (inactive) | 0.706 µM (active) | 0.583 µM (active) | 14 µM (inactive) | 1.44 µM (inactive) | 0.456 µM (active) | 5.36 µM (inactive) | 2.66 | 2.91 µM (inactive) | 1.46 µM (inactive) | 3.78 µM (inactive) | 0.193 µM (active) | –
9 | OC(c1ccc2c(c1)OCO2)c1ccc2c(c1)OCO2 | > 100 µM (inactive) | > 100 µM (inactive) | > 100 µM (inactive) | > 100 µM (inactive) | > 100 µM (inactive) | > 100 µM (inactive) | > 100 µM (inactive) | > 100 µM (inactive) | > 100 µM (inactive) | 53.6 µM (inactive) | > 100 µM (inactive) | > 100 µM (inactive) | > 100 µM (inactive) | > 100 µM (inactive) | > 100 | > 100 µM (inactive) | > 100 µM (inactive) | > 100 µM (inactive) | > 100 µM (inactive) | –
10 | N#Cc1c(-c2ccc(Cl)cc2)c(C#N)c(=O)n(NS(=O)(=O)c2ccccc2)c1O | 13.4 µM (inactive) | 30.6 µM (inactive) | 23.7 µM (inactive) | 39.1 µM (inactive) | 19.6 µM (inactive) | 27.9 µM (inactive) | 27.1 µM (inactive) | 37 µM (inactive) | 22.5 µM (inactive) | 35.6 µM (inactive) | 19.7 µM (inactive) | 25.9 µM (inactive) | – | 21.5 µM (inactive) | 22.3 | 13.8 µM (inactive) | 20.7 µM (inactive) | 29.9 µM (inactive) | – | 21.8 µM (inactive)
11 | N/C(=N\c1ccccc1Cl)c1ccccc1N | > 100 µM (inactive) | > 100 µM (inactive) | > 100 µM (inactive) | > 100 µM (inactive) | > 100 µM (inactive) | > 100 µM (inactive) | > 100 µM (inactive) | > 100 µM (inactive) | > 100 µM (inactive) | > 100 µM (inactive) | > 100 µM (inactive) | > 100 µM (inactive) | > 100 µM (inactive) | > 100 µM (inactive) | > 100 | > 100 µM (inactive) | – | > 100 µM (inactive) | – | > 100 µM (inactive)
12 | O=C1Nc2c(Cl)cc(Cl)cc2/C1=N/NC(=O)c1ccccc1O | 14.5 µM (inactive) | 16.9 µM (inactive) | 15.5 µM (inactive) | 15.2 µM (inactive) | 14.8 µM (inactive) | – | 13.4 µM (inactive) | 14.4 µM (inactive) | 10 µM (inactive) | – | 14.8 µM (inactive) | 12.8 µM (inactive) | 11.2 µM (inactive) | 16.8 µM (inactive) | 14.8 | 16.7 µM (inactive) | 14.6 µM (inactive) | 22.3 µM (inactive) | – | 12.2 µM (inactive)
13 | CCOC(=O)c1ccc(Nc2nc3ccccc3nc2C(=O)OCC)cc1 | > 100 µM (inactive) | – | 75.5 µM (inactive) | > 100 µM (inactive) | – | > 100 µM (inactive) | > 100 µM (inactive) | > 100 µM (inactive) | > 100 µM (inactive) | > 100 µM (inactive) | 59.6 µM (inactive) | > 100 µM (inactive) | > 100 µM (inactive) | > 100 µM (inactive) | > 100 | > 100 µM (inactive) | > 100 µM (inactive) | > 100 µM (inactive) | > 100 µM (inactive) | –
14 | CC1(C)C(=O)C(C)(C)C12SSC1(S2)C(C)(C)C(=O)C1(C)C | > 100 µM (inactive) | > 100 µM (inactive) | > 100 µM (inactive) | > 100 µM (inactive) | 84.5 µM (inactive) | – | > 100 µM (inactive) | > 100 µM (inactive) | 71.4 µM (inactive) | > 100 µM (inactive) | > 100 µM (inactive) | > 100 µM (inactive) | > 100 µM (inactive) | > 100 µM (inactive) | > 100 | > 100 µM (inactive) | > 100 µM (inactive) | 67 µM (inactive) | > 100 µM (inactive) | –
15 | Cc1ccc(S(=O)(=O)N(CC(O)c2ccccc2)c2ccccc2F)cc1 (stereo not given) | 16.6 µM (inactive) | 19.6 µM (inactive) | 16.8 µM (inactive) | 19.7 µM (inactive) | 15.5 µM (inactive) | 17.3 µM (inactive) | 13.5 µM (inactive) | 18 µM (inactive) | – | 15.9 µM (inactive) | 16.9 µM (inactive) | 20.2 µM (inactive) | 11.3 µM (inactive) | 17.4 µM (inactive) | 17.7 | 24.2 µM (inactive) | 16.6 µM (inactive) | 15.4 µM (inactive) | 14.5 µM (inactive) | –
16 | COc1cc([C@@H]2c3cc4c(cc3[C@@H](Nc3ccc(NC(=O)c5cc(NC(=O)c6cc([N+](=O)[O-])cn6C)cn5C)cc3)[C@H]3COC(=O)[C@H]23)OCO4)cc(OC)c1O | > 100 µM (inactive) | 2.72 µM (inactive) | 12.5 µM (inactive) | > 65.8 µM (inactive) | – | 0.261 µM (active) | > 43.7 µM (inactive) | 15.8 µM (inactive) | < 0.0209 µM (active) | – | > 48.4 µM (inactive) | 0.2 µM (active) | > 49.4 µM (inactive) | 11.6 µM (inactive) | 5.73 | 6.04 µM (inactive) | 0.364 µM (active) | 2.31 µM (inactive) | 31.1 µM (inactive) | –

Source: ChEMBL document CHEMBL1201862, “PubChem BioAssay data set” (2004)
